Laboratory results reported in US4118424A, “Biodegradable insecticides” (priority 1976, dated 1978).
Values after ≈ are worked out from the molar mass of the structure shown.

What was measured:
Phormia regina = assay: Insect toxicity, Phormia regina; type: in vivo
Culex fatigans larvae = assay: Insect toxicity, Culex fatigans larvae; type: in vivo; conditions: Culex quinquefasciatus
[1] = test system: Musca domestica (NAIDM strain); assay: Insect toxicity, Musca domestica NAIDM strain; type: in vivo; conditions: for LD50: Musca domestica, without PB; for Musca domestica NAIDM (w/PB) LD50: with PB
[2] = test system: Anopheles albimanus adults; assay: Insect toxicity, Anopheles albimanus adults; type: in vivo
[3] = test system: Anopheles albimanus larvae; assay: Insect toxicity, Anopheles albimanus larvae; type: in vivo
Culex fatigans adults = assay: Insect toxicity, Culex fatigans adults; type: in vivo
[4] = test system: Musca domestica Rsp strain; assay: Insect toxicity, Musca domestica Rsp strain, DDT-resistant; type: in vivo; conditions: for LD50: Musca domestica, without PB; for Musca domestica Rsp strain w/PB LD50: with PB
Anopheles albimanus = assay: Persistence on plywood surfaces of test huts, Anopheles albimanus; type: in vivo; conditions: adult mosquitoes
Experimental: (§1) The persistence of some of the compounds of the present invention was evaluated and compared with that of ethoxychlor. In these tests, the compounds were applied to the plywood surfaces of test huts and the mortalities of adult mosquitoes contained in the huts were measured to determine the number of weeks that 50% mortality continued to occur.

Culex fatigans = assay: Persistence on plywood surfaces of test huts, Culex fatigans; type: in vivo; conditions: adult mosquitoes
Experimental: as §1

Mouse toxicity, LD50 = type: in vivo, mice; conditions: in vivo
[5] = test system: insects (flies and mosquitoes); assay: Insecticidal activity, general statement; type: in vivo; conditions: versus ethoxychlor
Description: Metabolic studies involving insects, mice, and fish and a model ecosystem (such as described in U.S. Pat. No. 3,787,505) and insecticidal activity studies generally involving flies and mosquitoes have shown that both the symmetrical and the asymmetrical compounds of the present invention are effective. Thus, the new compounds can be represented by the general formula: [drawing 3] where R1 is H or Cl and R2 is CH3 or Cl, X and X^1 are the same or different and each is selected from the group consisting of C1 to C3 alkyl groups and C1 to C4 alkoxy groups.

mice = assay: Mouse toxicity, LD50; type: in vivo; conditions: versus ethoxychlor
[6] = test system: green sunfish (Lepomis cyanellus); assay: Green sunfish toxicity over a period of time; type: in vivo; conditions: initial concentration 0.1 ppm
Description: The compounds of Example III, V, XI, XIV and XXI were further tested and compared with ethoxychlor to determine fish toxicities over a period of time. In these tests, green sunfish (Lepomis cyanellus) were subject to an initial concentration dosage of 0.1 ppm and the number of days that 100 percent mortalities occurred was observed.

| SMILES | LD50 (Phormia regina) | LC50 (Culex fatigans larvae) | LD50 [1] | Musca domestica NAIDM (w/PB) LD50 [1] | Anopheles albimanus adults LC50 [2] | LC50 [3] | Culex fatigans adults-LC50 (Culex fatigans adults) | LD50 [4] | Musca domestica Rsp strain w/PB LD50 [4] | Anopheles albimanus, P50 (number of weeks that at least 50% mortality occurred) (Anopheles albimanus) | Culex fatigans, P50 (number of weeks that at least 50% mortality occurred) (Culex fatigans) | LD50 (Mouse toxicity, LD50) | insecticidal activity relative to ethoxychlor [5] | safety to mice relative to ethoxychlor (mice) | Number of days 100% mortality [6] |
| --- | --- | --- | --- | --- | --- | --- | --- | --- | --- | --- | --- | --- | --- | --- | --- |
| Cc1ccc(C(c2ccc(C)cc2)C(C)Cl)cc1 (stereo not drawn) [Example II] | > 250 mg/kg | 0.22 µg/mL (≈ 0.85 µM) | > 500 mg/kg | 24.5 µg/g | 6.9 ug/cm^2 | > 1 µg/mL | 9.7 ug/cm^2 | > 500 mg/kg | 140 µg/g |  |  |  |  |  |  |
| CCOc1ccc(C(c2ccc(OCC)cc2)C(C)(Cl)Cl)cc1 [Example XIX] | 24 mg/kg | 0.094 µg/mL (≈ 0.266 µM) | 17.5 mg/kg | 7 µg/g | 49 ug/cm^2 | 0.041 µg/mL (≈ 0.116 µM) | > 160 ug/cm^2 | 90 mg/kg | 23.5 µg/g | > 20 weeks | 40 weeks | < 300 mg/kg |  |  |  |
| CCOc1ccc(C(c2ccc(OC)cc2)C(C)C)cc1 (stereo not drawn) [Example X] | 28.5 mg/kg | 0.13 µg/mL (≈ 0.457 µM) | 65 mg/kg | 12 µg/g | 6.3 ug/cm^2 | 0.17 µg/mL (≈ 0.598 µM) | 16.5 ug/cm^2 | 110 mg/kg | 17.5 µg/g |  |  |  |  |  |  |
| CCOc1ccc(C(c2ccc(OC)cc2)C(C)Cl)cc1 (stereo not drawn) [IV] | 12 mg/kg | 0.15 µg/mL (≈ 0.492 µM) | 47 mg/kg | 4.7 µg/g | 27 ug/cm^2 | 0.15 µg/mL (≈ 0.492 µM) | > 160 ug/cm^2 | 100 mg/kg | 4.8 µg/g |  |  |  |  |  |  |
| CCCc1ccc(C(c2ccc(CCC)cc2)C(C)Cl)cc1 (stereo not drawn) [IX] | > 250 mg/kg | 0.145 µg/mL (≈ 0.46 µM) | 55 mg/kg | 45 µg/g | 17 ug/cm^2 | 0.068 µg/mL (≈ 0.216 µM) | > 160 ug/cm^2 | 120 mg/kg | 90 µg/g |  |  |  |  |  |  |
| CCCc1ccc(C(c2ccc(C)cc2)C(C)Cl)cc1 (stereo not drawn) [VIII] | 97.5 mg/kg | 0.18 µg/mL (≈ 0.628 µM) | 65 mg/kg | 29 µg/g | 7.2 ug/cm^2 | 0.18 µg/mL (≈ 0.628 µM) | 12 ug/cm^2 | 155 mg/kg | 85 µg/g |  |  |  |  |  |  |
| CCCOc1ccc(C(c2ccc(OCCC)cc2)C(C)Cl)cc1 (stereo not drawn) [VII] | 42.5 mg/kg | 0.12 µg/mL (≈ 0.346 µM) | 28 mg/kg | 10 µg/g | > 160 ug/cm^2 | 0.16 µg/mL (≈ 0.461 µM) | > 160 ug/cm^2 | 85 mg/kg | 42 µg/g |  |  |  |  |  |  |
| CCCOc1ccc(C(c2ccc(OCC)cc2)C(C)Cl)cc1 (stereo not drawn) [VI] | 62.5 mg/kg | 0.05 µg/mL (≈ 0.15 µM) | 15.5 mg/kg | 3.2 µg/g | 14.5 ug/cm^2 | 0.075 µg/mL (≈ 0.225 µM) | > 160 ug/cm^2 | 25 mg/kg | 5.5 µg/g |  |  |  |  |  |  |
| CCCOc1ccc(C(c2ccc(OCCC)cc2)C(C)C)cc1 [XIII] | 200 mg/kg | 0.3 µg/mL (≈ 0.919 µM) | 100 mg/kg | 21.5 µg/g | > 160 ug/cm^2 | 0.25 µg/mL (≈ 0.766 µM) | > 160 ug/cm^2 | 185 mg/kg |  |  |  |  |  |  |  |
| CCCOc1ccc(C(c2ccc(OCC)cc2)C(C)C)cc1 (stereo not drawn) [XII] | 60 mg/kg | 0.39 µg/mL (≈ 1.25 µM) | 21 mg/kg | 6.5 µg/g | 35 ug/cm^2 | 0.056 µg/mL (≈ 0.179 µM) | > 160 ug/cm^2 | 42 mg/kg | 22.5 µg/g |  |  | ≥ 1000 mg/kg | at least generally comparable to ethoxychlor | at least five times safer to mice than is ethoxychlor |  |
| COc1ccc(C(c2ccc(OC)cc2)C(C)(Cl)Cl)cc1 [XVIII] | 13.5 mg/kg | 0.061 µg/mL (≈ 0.188 µM) | 65 mg/kg | 8 µg/g | 1.63 ug/cm^2 | 0.18 µg/mL (≈ 0.553 µM) | > 160 ug/cm^2 | 155 mg/kg | 9.5 µg/g |  |  |  |  |  |  |
| Cc1ccc(C(c2ccc(C)cc2)C(C)(Cl)Cl)cc1 [XVII] | 8 mg/kg | 0.2 µg/mL (≈ 0.682 µM) | 145 mg/kg | 18 µg/g | 5 ug/cm^2 | 0.13 µg/mL (≈ 0.443 µM) | 8.0 ug/cm^2 | 270 mg/kg | 7.0 µg/g |  |  |  |  |  |  |
| CCCCOc1ccc(C(c2ccc(C)cc2)C(C)C)cc1 (stereo not drawn) [XVI] | > 250 mg/kg | > 1 µg/mL | > 500 mg/kg | 240 µg/g | > 160 ug/cm^2 | 0.19 µg/mL (≈ 0.641 µM) | > 160 ug/cm^2 | > 500 mg/kg | > 500 µg/g |  |  |  |  |  |  |
| CCCOc1ccc(C(c2ccc(C)cc2)C(C)C)cc1 (stereo not drawn) [XV] | 250 mg/kg | 0.55 µg/mL (≈ 1.95 µM) | 175 mg/kg | 100 µg/g | 29 ug/cm^2 | 0.42 µg/mL (≈ 1.49 µM) | > 160 ug/cm^2 | 370 mg/kg | 220 µg/g |  |  |  |  |  |  |
| CCOc1ccc(C(c2ccc(OCC)cc2)C(C)(C)Cl)cc1 [XXI] | > 250 mg/kg | > 1 µg/mL | 115 mg/kg | 12 µg/g | > 160 ug/cm^2 | > 1 µg/mL | > 160 ug/cm^2 | 180 mg/kg | 25.5 µg/g |  |  | ≥ 1000 mg/kg | at least generally comparable to ethoxychlor | at least five times safer to mice than is ethoxychlor | 0 days |
| COc1ccc(C(c2ccc(OC)cc2)C(C)(C)Cl)cc1 [XX] | 75 mg/kg | > 1 µg/mL | > 500 mg/kg | 12 µg/g | 16 ug/cm^2 | > 1 µg/mL | > 160 ug/cm^2 | > 500 mg/kg | 26 µg/g |  |  |  |  |  |  |
| CCOc1ccc(C(c2ccc(OCC)cc2)C(Cl)(Cl)Cl)cc1 [ethoxychlor, reference compound] |  |  |  |  |  |  |  |  |  | > 44 weeks | 8 weeks |  |  |  | 21 days |
